These compounds were tested against T1, human LPAR1 (Homo sapiens, UniProt Q92633) (assay: LPAR1 intracellular calcium mobilization assay (antagonist mode, CHO-K1 EDG2 cells, FLIPR)). Settings: antagonist activity; CHO-K1 EDG2 cells expressing human LPAR1; 60 min pre-incubation at 37° C., then LPA 18:2 at EC80 concentration (100 nM); test compound 0.5 nM to 10 μM; read-out: LPAR1 (EC50; nM).
T1 construct: host or cells: CHO-K1
Format: cell-based
Experimental: In vitro LPAR1 activity was measured in an intracellular calcium mobilization assay.
CHO-K1 EDG2 cells (DiscoverX cat #93-0644C2) expressing human LPAR1 (NM_001401.3) were seeded in a total volume of 25 μL of Dulbecco's Modification of Eagle's Medium (DMEM) with 10% Fetal Bovine Serum, 1× PenStrepGlutamine, 300 μg/ml Hygromycin, and 800 μg/ml G418 into 384-well tissue culture plate (Grenier #781091) at 15,000 cells/well and incubated at 37° C. overnight. Prior to testing, 25 μL Calcium Loading Dye Component A (FLIPR Calcium 6 Assay Kit Molecular Device #R8190) and 2.5 mM Probenecid (Invitrogen #P36400, prepared fresh) in Hank's Balanced Salt Solution (Corning #21-023-CV), 20 mM HEPES (Corning #25-060-CI), 0.1% Bovine Serum Albumin (Sigma-Aldrich #A7906-500G) was add to the cells for 60 minutes at 37° C.
Agonist dose curves of LPA 18:2 (Avanti Polar Lipids cat #857138, 0.5 nM to 10 μM) were recorded to determine the LPA 18:2 EC80 for subsequent antagonist assays. For agonist dose curves, cells were removed from the incubator 2 hours after dye loading and transferred to the FLIPR Tetra instrument (Molecular Devices, San Jose, CA). Calcium mobilization was monitored for […] and 10 μL 6× LPA in HBSS/20 mM Hepes/0.1% bovine serum albumin (BSA) was added to the cells 5 seconds into the assay.
To determine the LPAR1 antagonist activity of test compounds, cells were pre-incubated with test compound at a dose range of 0.5 nM to 10 μM, followed by LPA at EC80 concentration (100 nM). After dye loading, cells were removed from the incubator and 0.3 μL of 200X antagonist was added. Cells were incubated for 60 minutes at 37° C. Antagonist activity was measured on a FLIPR Tetra. Calcium mobilization was monitored for 3.5 minutes and 10 μL 6X EC80 LPA in HBSS, 20 mM HEPES, and 0.1% BSA was added to the cells 5 seconds into the assay. Signal amplitude (Maximum minus minimum) values were plotted against log10 of antagonist concentration using Dose Response Tool (Gilead Sciences Inc.) to determine EC50.
The compound numbers correspond to the compound numbers in Examples 1 to13.

T1 sequence (Q92633 whole entry): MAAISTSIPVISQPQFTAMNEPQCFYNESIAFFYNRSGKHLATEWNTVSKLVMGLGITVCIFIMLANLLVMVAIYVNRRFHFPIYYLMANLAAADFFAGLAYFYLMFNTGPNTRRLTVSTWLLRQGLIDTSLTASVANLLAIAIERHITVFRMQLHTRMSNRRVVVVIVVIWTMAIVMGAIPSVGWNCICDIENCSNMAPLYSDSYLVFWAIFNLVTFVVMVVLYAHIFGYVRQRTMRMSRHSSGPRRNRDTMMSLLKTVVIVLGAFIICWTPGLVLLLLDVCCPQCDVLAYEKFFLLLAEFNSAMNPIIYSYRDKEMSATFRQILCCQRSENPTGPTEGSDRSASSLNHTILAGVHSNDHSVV

| SMILES | IC50 |
| --- | --- |
| C[C@@H](OC(=O)Nc1c(-c2ccc(NC(=O)c3cnc(-c4cccc(Cl)c4)nc3)cn2)nnn1C)c1cc(F)cnc1F [Compound 8, (R)-1-(2,5-difluoropyridin-3-yl)ethyl (4-(5-(2-(3-chlorophenyl)pyrimidine-5-carboxamido)pyridin-2-yl)-1-methyl-1H-1,2,3-triazol-5-yl)carbamate] | 22 nM |
| C[C@@H](OC(=O)Nc1c(-c2ccc(NC(=O)C34CC(OS(C)(=O)=O)(C3)C4)cn2)nnn1C)c1cccnc1Cl [Compound 13, (R)-3-((6-(5-(((1-(2-chloropyridin-3-yl)ethoxy)carbonyl)amino)-1-methyl-1H-1,2,3-triazol-4-yl)pyridin-3-yl)carbamoyl)bicyclo[1.1.1]pentan-1-yl methanesulfonate] | 152 nM |
| Cc1nc(-c2nnn(C)c2NC(=O)O[C@H](C)c2cc(F)cnc2F)ccc1NC(=O)C1(CN)CC(F)(F)C1 [Compound 9, (R)-1-(2,5-difluoropyridin-3-yl)ethyl (4-(5-(1-(aminomethyl)-3,3-difluorocyclobutane-1-carboxamido)-6-methylpyridin-2-yl)-1-methyl-1H-1,2,3-triazol-5-yl)carbamate] | 34 nM |
| C[C@@H](OC(=O)Nc1c(-c2ccc(NC(=O)c3ccc(C45CC(C4)C5)cc3)cn2)nnn1C)c1cc(F)cnc1F [Compound 11, (R)-1-(2,5-difluoropyridin-3-yl)ethyl (4-(5-(4-(bicyclo[1.1.1]pentan-1-yl)benzamido)pyridin-2-14)-1-methyl-1H-1,2,3-triazol-5-yl)carbamate] | 365 nM |
| C[C@@H](OC(=O)Nc1c(-c2ccc(NC(=O)C34CC(c5ccccc5)(C3)C4)cn2)nnn1C)c1cc(F)cnc1F [Compound 10, (R)-1-(2,5-difluoropyridin-3-yl)ethyl (1-methyl-4-(5-(3-phenylbicyclo[1.1.1]pentane-1-carboxamido)pvidin-2-yl)-1H-1,2,3-triazol-5-yl)carbamate] | 13 nM |
| COC1(C(=O)Nc2ccc(-c3nnn(C)c3NC(=O)O[C@H](C)c3cccnc3Cl)nc2)CC1 [Compound 4, (R)-1-(2-chloropyridin-3-yl)ethyl (4-(5-(1-methoxycyclopropane-1-carboxamido)pyridin-2-yl)-1-methyl-1H-1,2,3-triazol-5-yl)carbamate] | 1260 nM |
| CC(=O)Nc1ccc(-c2nnn(C)c2NC(=O)O[C@H](CF)c2cccc(F)c2)nc1C [Compound 2, (S)-2-fluoro-1-(3-fluorophenyl)ethyl (4-(5-acetamido-6-methylpyridin-2-yl)-1-methyl-1H-1,2,3-triazol-5-yl)carbamate] | 37000 nM |
| C[C@@H](OC(=O)Nc1c(-c2ccc(NC(=O)c3ccc(C4CC4)nc3)cn2)nnn1C)c1cc(F)cnc1F [Compound 6, (R)-1-(2,5-difluoropyridin-3-yl)ethyl (4-(5-(6-cyclopropylnicotinamido)pyridin-2-yl)-1-methyl-1H-1,2,3-triazol-5-yl)carbamate] | 176 nM |
| C[C@@H](OC(=O)Nc1c(-c2ccc(NC(=O)C3(C#N)CC3)c(Cl)n2)nnn1C)c1cc(F)cnc1F [Compound 5, (R)-1-(2,5-difluoropyridin-3-yl)ethyl (4-(6-chloro-5-(1-cyanocyclopropane-1-carboxamido)pyridin-2-yl)-1-methyl-1H-1,2,3-triazol-5-yl)carbamate] | 186 nM |
| CC(=O)Nc1ccc(-c2nnn(C)c2NC(=O)O[C@H](C)c2cc(F)cnc2F)nc1 [Compound 12, (R)-1-(2,5-difluoropyridin-3-yl)ethyl (4-(5-acetamidopyridin-2-yl)-1-methyl-1H-1,2,3-triazol-5-yl)carbamate] | 2050 nM |
| Cc1nc(-c2nnn(C)c2NC(=O)O[C@H](C)c2cc(F)cnc2F)ccc1NC(=O)c1cnc(C2CC2)o1 [Compound 7, (R)-1-(2,5-difluoropyridin-3-yl)ethyl (4-(5-(2-cyclopropyloxazole-5-carboxamido)-6-methylpyridin-2-yl)-1-methyl-1H-1,2,3-triazol-5-yl)carbamate] | 261 nM |
| C[C@@H](OC(=O)Nc1c(-c2ccc(NC(=O)C(F)(F)F)cn2)nnn1C)c1cccc(F)c1 [Compound 1, (R)-1-(3-fluorophenyl)ethyl (1-methyl-4-(5-(2,2,2-trifluoroacetamido)pyridin-2-yl)-1H-1,2,3-triazol-5-yl)carbamate] | 345 nM |
| C[C@@H](OC(=O)Nc1c(-c2ccc(NC(=O)C3(O)CC3)cn2)nnn1C)c1cccnc1Cl [Compound 3, (R)-1-(2-chloropyridin-3-yl)ethyl (4-(5-(1-hydroxycyclopropane-1-carboxamido)pyridin-2-yl)-1-methyl-1H-1,2,3-triazol-5-yl)carbamate] | 2770 nM |

Source: patent publication US11939318B2, “LPA receptor antagonists and uses thereof” (Gilead Sciences, Inc., priority 2021, dated 2024)
